Source: patent US10597388B2, “Pyridazinone herbicides” (FMC CORPORATION, priority 2014, dated 2020)

Tests used:
Test in all cases: Test D controlled growth environment herbicide test, pre- and postemergence
Format in all cases: in vivo
[1] = system: bromegrass, downy (downy bromegrass, Bromus tectorum)
Outline: (§1)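 Pre-emergence: seeds sown in silt loam soil were sprayed with compound in a non-phytotoxic solvent mix containing surfactant. Post-emergence: plants at 2 to 18 cm (1- to 4-leaf stage) in peat moss/vermiculite medium got the same formulation. Visual 0–100 rating versus controls after 14 to 21 d.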

[2] = system: barley, spring (spring barley, Hordeum vulgare)
Outline: as §1

[3] = system: galium (catchweed bedstraw, Galium aparine)
Outline: as §1

kochia (Kochia scoparia) = system: kochia (Kochia scoparia)
Outline: as §1

[4] = system: foxtail, green (green foxtail, Setaria viridis)
Outline: as §1

[5] = system: canarygrass (Phalaris minor)
Outline: as §1

[6] = system: speedwell (bird's-eye speedwell, Veronica persica)
Outline: as §1

[7] = system: lambsquarters (Chenopodium album)
Outline: as §1

[8] = system: mustard, wild (wild mustard, Sinapis arvensis)
Outline: as §1

[9] = system: chamomile (scentless chamomile, Matricaria inodora)
Outline: as §1

[10] = system: barley, winter (winter barley, Hordeum vulgare)
Outline: as §1

[11] = system: bluegrass (annual bluegrass, Poa annua)
Outline: as §1

[12] = system: oat, wild (wild oat, Avena fatua)
Outline: as §1

[13] = Postemergence, 31 g ai/ha, scale 0 to 100 (0 no effect, 100 complete control)
[14] = Postemergence, 125 g ai/ha, visual rating on scale 0 (no effect) to 100 (complete control), 14 to 21 d
[15] = Postemergence, 250 g ai/ha, scale 0 to 100 (0 no effect, 100 complete control)
[16] = Preemergence, 62 g ai/ha, scale 0 to 100 (0 no effect, 100 complete control)
[17] = Preemergence, 125 g ai/ha, scale 0 to 100 (0 no effect, 100 complete control)
[18] = Preemergence, 250 g ai/ha, scale 0 to 100 (0 no effect, 100 complete control)
[19] = postemergence, 62 g ai/ha, scale 0 to 100, 0 no effect, 100 complete control

CCOC(=O)Oc1c(C)nn(C)c(=O)c1-c1c(C)sc2ccc(C)cc12 [Compound 82]
Bromegrass, Downy plant response rating [1, 13]: 55
Plant response rating, Bromegrass, Downy [1, 14]: 60
Plant response rating, Bromegrass, Downy [1, 15]: 60
Plant response rating (scale of 0 to 100), Bromegrass, Downy ([1]; Preemergence, 31 g ai/ha): 45
Plant response rating, Bromegrass, Downy [1, 16]: 65
Plant response rating, Bromegrass, Downy [1, 17]: 80
Plant response rating, Bromegrass, Downy [1, 18]: 85
Plant response rating, Bromegrass, Downy [1, 19]: 45
Barley, Spring plant response rating [2, 13]: 0
Plant response rating, Barley, Spring [2, 14]: 0
Plant response rating, Barley, Spring [2, 15]: 5
Plant response rating (scale of 0 to 100), Barley, Spring ([2]; Preemergence, 31 g ai/ha): 0
Plant response rating, Barley, Spring [2, 16]: 0
Plant response rating, Barley, Spring [2, 17]: 0
Plant response rating, Barley, Spring [2, 18]: 10
Plant response rating, Barley, Spring [2, 19]: 5
Galium plant response rating [3, 13]: 90
Plant response rating, Galium [3, 14]: 100
Plant response rating, Galium [3, 15]: 100
Plant response rating (scale of 0 to 100), Galium ([3]; Preemergence, 31 g ai/ha): 60
Plant response rating (scale of 0 to 100), Galium ([3]; Preemergence, 62 g ai/ha): 60
Plant response rating, Galium [3, 17]: 80
Plant response rating, Galium [3, 18]: 85
Plant response rating, Galium [3, 19]: 100
Kochia plant response rating (kochia (Kochia scoparia); [13]): 90
Plant response rating, Kochia (kochia (Kochia scoparia); [14]): 100
Plant response rating, Kochia (kochia (Kochia scoparia); [15]): 100
Plant response rating (scale of 0 to 100), Kochia (kochia (Kochia scoparia); Preemergence, 31 g ai/ha): 0
Plant response rating (scale of 0 to 100), Kochia (kochia (Kochia scoparia); Preemergence, 62 g ai/ha): 15
Plant response rating, Kochia (kochia (Kochia scoparia); [17]): 75
Plant response rating, Kochia (kochia (Kochia scoparia); [18]): 100
Plant response rating, Kochia (kochia (Kochia scoparia); [19]): 95
Foxtail, Green plant response rating [4, 13]: 75
Plant response rating, Foxtail, Green [4, 14]: 85
Plant response rating, Foxtail, Green [4, 15]: 90
Plant response rating (scale of 0 to 100), Foxtail, Green ([4]; Preemergence, 31 g ai/ha): 35
Plant response rating (scale of 0 to 100), Foxtail, Green ([4]; Preemergence, 62 g ai/ha): 75
Plant response rating, Foxtail, Green [4, 17]: 90
Plant response rating, Foxtail, Green [4, 18]: 85
Plant response rating, Foxtail, Green [4, 19]: 80
Canarygrass plant response rating [5, 13]: 50
Plant response rating, Canarygrass [5, 14]: 75
Plant response rating, Canarygrass [5, 15]: 85
Plant response rating (scale of 0 to 100), Canarygrass ([5]; Preemergence, 31 g ai/ha): 75
Plant response rating (scale of 0 to 100), Canarygrass ([5]; Preemergence, 62 g ai/ha): 85
Plant response rating, Canarygrass [5, 17]: 90
Plant response rating, Canarygrass [5, 18]: 95
Plant response rating, Canarygrass [5, 19]: 55
Speedwell plant response rating [6, 13]: 70
Plant response rating, Speedwell [6, 14]: 85
Plant response rating, Speedwell [6, 15]: 85
Plant response rating (scale of 0 to 100), Speedwell ([6]; Preemergence, 31 g ai/ha): 75
Plant response rating (scale of 0 to 100), Speedwell ([6]; Preemergence, 62 g ai/ha): 75
Plant response rating, Speedwell [6, 17]: 100
Plant response rating, Speedwell [6, 18]: 100
Plant response rating, Speedwell [6, 19]: 75
Lambsquarters plant response rating [7, 13]: 95
Plant response rating, Lambsquarters [7, 14]: 95
Plant response rating, Lambsquarters [7, 15]: 100
Plant response rating (scale of 0 to 100), Lambsquarters ([7]; Preemergence, 31 g ai/ha): 75
Plant response rating (scale of 0 to 100), Lambsquarters ([7]; Preemergence, 62 g ai/ha): 95
Plant response rating, Lambsquarters [7, 17]: 100
Plant response rating, Lambsquarters [7, 18]: 100
Plant response rating, Lambsquarters [7, 19]: 95
Mustard, Wild plant response rating [8, 13]: 25
Plant response rating, Mustard, Wild [8, 14]: 40
Plant response rating, Mustard, Wild [8, 15]: 70
Plant response rating (scale of 0 to 100), Mustard, Wild ([8]; Preemergence, 31 g ai/ha): 0
Plant response rating (scale of 0 to 100), Mustard, Wild ([8]; Preemergence, 62 g ai/ha): 0
Plant response rating, Mustard, Wild [8, 17]: 25
Plant response rating, Mustard, Wild [8, 18]: 15
Plant response rating, Mustard, Wild [8, 19]: 35
Chamomile plant response rating [9, 13]: 90
Plant response rating, Chamomile [9, 14]: 100
Plant response rating, Chamomile [9, 15]: 100
Plant response rating (scale of 0 to 100), Chamomile ([9]; Preemergence, 31 g ai/ha): 100
Plant response rating (scale of 0 to 100), Chamomile ([9]; Preemergence, 62 g ai/ha): 100
Plant response rating, Chamomile [9, 17]: 100
Plant response rating, Chamomile [9, 18]: 100
Plant response rating, Chamomile [9, 19]: 100
Barley, Winter plant response rating [10, 13]: 0
Plant response rating, Barley, Winter [10, 14]: 0
Plant response rating, Barley, Winter [10, 15]: 0
Plant response rating (scale of 0 to 100), Barley, Winter ([10]; Preemergence, 31 g ai/ha): 0
Plant response rating, Barley, Winter [10, 16]: 0
Plant response rating, Barley, Winter [10, 17]: 5
Plant response rating, Barley, Winter [10, 18]: 25
Plant response rating, Barley, Winter [10, 19]: 0
Bluegrass plant response rating [11, 13]: 10
Plant response rating, Bluegrass [11, 14]: 30
Plant response rating, Bluegrass [11, 15]: 35
Plant response rating (scale of 0 to 100), Bluegrass ([11]; Preemergence, 31 g ai/ha): 15
Plant response rating, Bluegrass [11, 16]: 45
Plant response rating, Bluegrass [11, 17]: 65
Plant response rating, Bluegrass [11, 18]: 80
Plant response rating, Bluegrass [11, 19]: 20
Oat, Wild plant response rating [12, 13]: 90
Plant response rating, Oat, Wild [12, 14]: 95
Plant response rating, Oat, Wild [12, 15]: 95
Plant response rating (scale of 0 to 100), Oat, Wild ([12]; Preemergence, 31 g ai/ha): 80
Plant response rating (scale of 0 to 100), Oat, Wild ([12]; Preemergence, 62 g ai/ha): 85
Plant response rating, Oat, Wild [12, 17]: 95
Plant response rating, Oat, Wild [12, 18]: 95
Plant response rating, Oat, Wild [12, 19]: 90
